{
  "source": "patent US20250195624A1",
  "about": "“USE OF SUPEROXIDE DISMUTASE FOR THE TREATMENT AND/OR PREVENTION OF ALLERGIC ASTHMA” (ISOCELL S.A.S., priority 2022, published 2025)",
  "type_in_all_cases": "in vivo, Balb/cj mice",
  "key": {"[1]": {"test_system": "cell population from bronchoalveolar lavages (BAL)", "assay": "Inflammatory response: BAL cell population by flow cytometry, HDM allergy induced mice", "details": "asthmatic mice", "protocol": "(§1) An allergic asthma murine model involving exposure to house dust mites was used. This model comprises a preliminary percutaneous sensitisation challenge phase of Balb/cj mice with a whole house dust mite extract (days 0, 7, 14, and 21), followed by two intranasal stimulations (days 27 and 34) which induced the symptoms of allergy-induced asthma in the test subjects. The efficacy of the Glisodin formulations was evaluated by daily administration to the mice via force feeding of 5 mg of the Glisodin formulation diluted in water, starting at 24 hours after the first intranasal sensitisation challenge and continuing for 5 consecutive days every week for 5 weeks. For comparative purposes, the same protocol was used to evaluate the effect of a combined administration of Glisodin with salbutamol, in which case the salbutamol was administered for 30 seconds at a solution concentration of 5 mg/ml as a nebulized aerosol 1 hour before each sensitisation challenge.\nAt the end of the study protocol on mice, bronchoalveolar lavage (BAL) were taken and the cell population analysed using flow cytometry. […] ANOVA analysis of the data using the Tukey test was carried out and a confidence interval as indicated on the charts established: *=p<0.05, ** p<0.01 and *** p<0.001, in a population of n-6 to 8 mice per group."}, "[2]": {"test_system": "Th1, Th2 and Th17 lymphocyte", "assay": "Immune response: lung cells restimulated with whole dust mite extract, flow cytometry", "details": "lungs of asthmatic mice", "protocol": "as §1\nAt the end of the treatment protocol, mice lungs were harvested, ground, restimulated with whole dust mite extract and the resulting cell populations analysed using flow cytometry. The results are illustrated in FIG. 10, in which the following cell types were counted: Th1 (CD3+, CD4+, IFNγ+), Th2 (CD3+, CD4+, IL-13+) and Th17 (CD3+, CD4+, IL-17+). […]"}, "[3]": {"test_system": "IgE specific to house dust mites and MCP-1", "assay": "Humoral response: serum HDM-specific IgE by ELISA and MCP-1 production", "details": "asthmatic mice", "from_the_text": "An allergic asthma murine model involving exposure to house dust mites was used. This model comprises a preliminary percutaneous sensitisation challenge phase of Balb/cj mice with a whole house dust mite extract (days 0, 7, 14, and 21), followed by two intranasal stimulations (days 27 and 34) which induced the symptoms of allergy-induced asthma in the test subjects. […] For comparative purposes, the same protocol was used to evaluate the effect of a combined administration of Glisodin with salbutamol, in which case the salbutamol was administered for 30 seconds at a solution concentration of 5 mg/ml as a nebulized aerosol 1 hour before each sensitisation challenge. In allergic asthma, once the antigen has been recognised, clonal selection and proliferation taken place, followed by B lymphocyte differentiation into plasmocytes, the formation of the immune complex between IgE and allergens leads to degranulation of the effecting cells and liberation of chemical mediators such as histamine and MCP-1. In order to evaluate the effect of Glisodin treatment, with respect to initiation of an asthma attack, serum levels of IgE were measured by ELISA for IgE specific to house dust mites and measurements made of the levels of production of MCP-1. […]"}, "IL-5, IL-13, IL-17": {"test_system": "IL-5, IL-13, IL-17", "assay": "Cytokine response in supernatant of BAL", "details": "asthmatic mice", "protocol": "as §1\nCytokines are produced in response to antigens present at the surface of foreign bodies or by molecules considered as foreign by the immune. […] In the present case, Th2 inflammatory pathway cytokines, for example, IL-5 and IL-13, and Th17 cytokines, such as IL-17 were measured in the supernatant of BAL of the various mouse groups, and the results illustrated in FIG. 12, with application of ANOVA analysis of the data using the Tukey test leading to a confidence interval as indicated on the charts established: *=p<0.05, ** p<0.01 and *** p<0.001, in a population n=6 to 8 mice per group."}, "[4]": {"test_system": "house dust mite (HDM) allergy induced mice", "assay": "Respiratory function by flexiVent in response to methacholine, HDM allergy induced mice", "details": "asthmatic mice, increasing doses of methacholine", "protocol": "as §1\nRespiratory function in the mice was analysed using the flexi Vent™ system available from SciReq and the results illustrated in FIGS. 7 and 8. […] Respiratory function was measured using the flexiVent™ system in response to increasing doses of the broncho-constrictor methacholine. […]\nThe efficacy of Glisodin was also analysed in combination with salbutamol, a B2-adrenergic receptor agonist having a bronchodilatory and anti-inflammatory activity, as used in the treatment of asthma attacks, the results of which are illustrated in FIG. 8. […] In the charts, CTL or control indicates naïve untreated, untreated asthmatic mice (HDM), asthmatic mice having received salbutamol treatment (Salbutamol), asthmatic mice having received salbutamol and wheat Glisodin (Salbu Wheat) or asthmatic mice having received salbutamol with melon Glisodin (Salbu Melon), all measured by flexi Vent in response to increasing doses of the bronchoconstrictor methacholine. […]"}, "[5]": {"test_system": "house dust mite (HDM) allergy induced mice", "assay": "Tissular degradation: histological analysis of lung samples (eosin and hematoxylin), scoring system", "details": "double blind scoring", "protocol": "as §1, with “For comparative purposes, the same protocol was used to evaluate the effect of a combined administration of Glisodin with salbutamol, in which case the salbutamol was administered for 30 seconds at a solution concentration of 5 mg/ml as a nebulized aerosol 1 hour before each sensitisation challenge.” left out\nIn situ evaluation of inflammation, bronchoconstriction and asthma severity were carried out via histological analysis, through staining of lung samples from the various mouse groups with eosin and hematoxylin, with a population of 6 mice per group, the images being shown at a scale of 100 μm, as illustrated in FIG. 13. The degree of tissular degradation was assessed in a double blind protocol by two independent assessors using a scoring system. […]"}},
  "data": [
    {"smiles": "CC(C)(C)NCC(O)c1ccc(O)c(CO)c1", "note": "(stereo not shown) [salbutamol]", "values": [
      {"measurement": "number of eosinophils", "setting": "[1]; BAL", "result": "reduction"},
      {"measurement": "number of lymphocytes", "setting": "[1]; BAL", "result": "reduction"},
      {"measurement": "total number of cells in the BAL and lungs", "setting": "[1]; vs untreated asthmatic mice", "result": "reduction"},
      {"measurement": "Th1 lymphocyte numbers", "setting": "[2]", "result": "reduction"},
      {"measurement": "level of MCP-1 produced", "setting": "[3]", "result": "reduced"},
      {"measurement": "level of HDM-specific IgE", "setting": "[3]; serum", "result": "able to reduce"},
      {"measurement": "IL-5 count", "setting": "IL-5, IL-13, IL-17", "result": "effective in reducing"},
      {"measurement": "IL-17 count", "setting": "IL-5, IL-13, IL-17", "result": "tendency to decrease"},
      {"measurement": "level of IL-13", "setting": "IL-5, IL-13, IL-17", "result": "neither salbutamol nor the various Glisodin formulations tested were able to reduce"},
      {"measurement": "compliance", "setting": "[4]", "result": "significant effect on the improvement"},
      {"measurement": "elastance", "setting": "[4]", "result": "significant effect on the improvement"},
      {"measurement": "resistance of the airways", "setting": "[4]", "result": "significant effect on the improvement"},
      {"measurement": "severity of the asthma (degree of tissular degradation, histological score)", "setting": "[5]", "result": "reduction"}
    ]}
  ]
}
